From the supplement of paper PMC10307832

Experiments:
Test in all cases: relative viability (nuclei count vs DMSO), 5 days (fraction); higher = more cells survive
JZL-184 + Luminespib = compound: C1CN(CCC1C(C2=CC3=C(C=C2)OCO3)(C4=CC5=C(C=C4)OCO5)O)C(=O)OC6=CC=C(C=C6)[N+](=O)[O-] [JZL-184] + CCNC(=O)c1noc(-c2cc(C(C)C)c(O)cc2O)c1-c1ccc(CN2CCOCC2)cc1 [Luminespib] (partner 0.01 µM)
Method in brief: (§1)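 One day after seeding in 1536-well plates, lung cancer cell lines were dosed by pin tool. Dosing was either single-drug or a fixed anchor-drug dose plus five library-drug doses (not always all listed) in √10 steps. After 5 days, nuclei were stained in one fix-and-stain step and counted on 4× images, and relative viability is the nuclei count of treated wells over that of vehicle wells, given as the median of duplicate plates.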

JZL-184 + Foretinib = compound: C1CN(CCC1C(C2=CC3=C(C=C2)OCO3)(C4=CC5=C(C=C4)OCO5)O)C(=O)OC6=CC=C(C=C6)[N+](=O)[O-] [JZL-184] + COc1cc2c(Oc3ccc(NC(=O)C4(C(=O)Nc5ccc(F)cc5)CC4)cc3F)ccnc2cc1OCCCN1CCOCC1 [Foretinib] (partner 0.25 µM)
Method in brief: as §1

JZL-184 + OSI-027 = compound: C1CN(CCC1C(C2=CC3=C(C=C2)OCO3)(C4=CC5=C(C=C4)OCO5)O)C(=O)OC6=CC=C(C=C6)[N+](=O)[O-] [JZL-184] + COc1cccc2cc(-c3nc([C@H]4CC[C@H](C(=O)O)CC4)n4ncnc(N)c34)[nH]c12 [OSI-027] (partner 0.5 µM)
Method in brief: as §1

JZL-184 + Alpelisib = compound: C1CN(CCC1C(C2=CC3=C(C=C2)OCO3)(C4=CC5=C(C=C4)OCO5)O)C(=O)OC6=CC=C(C=C6)[N+](=O)[O-] [JZL-184] + Cc1nc(NC(=O)N2CCC[C@H]2C(N)=O)sc1-c1ccnc(C(C)(C)C(F)(F)F)c1 [Alpelisib] (partner 2 µM)
Method in brief: as §1

JZL-184 + Decitabine = compound: C1CN(CCC1C(C2=CC3=C(C=C2)OCO3)(C4=CC5=C(C=C4)OCO5)O)C(=O)OC6=CC=C(C=C6)[N+](=O)[O-] [JZL-184] + Nc1ncn([C@H]2C[C@H](O)[C@@H](CO)O2)c(=O)n1 [Decitabine] (partner 2 µM)
Method in brief: as §1

| Cell Line | relative viability (JZL-184 + Luminespib; first compound 0.04 µM) | relative viability (JZL-184 + Luminespib; first compound 0.4 µM) | relative viability (JZL-184 + Luminespib; first compound 1.265 µM) | relative viability (JZL-184 + Luminespib; first compound 4 µM) | relative viability (JZL-184 + Foretinib; first compound 0.04 µM) | relative viability (JZL-184 + Foretinib; first compound 0.4 µM) | relative viability (JZL-184 + Foretinib; first compound 1.265 µM) | relative viability (JZL-184 + Foretinib; first compound 4 µM) | relative viability (JZL-184 + OSI-027; first compound 0.04 µM) | relative viability (JZL-184 + OSI-027; first compound 0.4 µM) | relative viability (JZL-184 + OSI-027; first compound 1.265 µM) | relative viability (JZL-184 + OSI-027; first compound 4 µM) | relative viability (JZL-184 + Alpelisib; first compound 0.04 µM) | relative viability (JZL-184 + Alpelisib; first compound 0.4 µM) | relative viability (JZL-184 + Alpelisib; first compound 1.265 µM) | relative viability (JZL-184 + Alpelisib; first compound 4 µM) | relative viability (JZL-184 + Decitabine; first compound 0.04 µM) | relative viability (JZL-184 + Decitabine; first compound 0.4 µM) | relative viability (JZL-184 + Decitabine; first compound 1.265 µM) | relative viability (JZL-184 + Decitabine; first compound 4 µM) |
| --- | --- | --- | --- | --- | --- | --- | --- | --- | --- | --- | --- | --- | --- | --- | --- | --- | --- | --- | --- | --- |
| EMC-BAC-2 | 1.26 | 1.11 | 1.24 | 1.09 | 1.09 | 0.957 | 1.09 | 0.947 | 0.368 | 0.375 | 0.396 | 0.343 | 0.794 | 0.733 | 0.776 | 0.729 | 1.02 | 0.946 | 0.958 | 0.944 |
| NCI-H661 | 0.969 | 0.898 | 0.938 | 0.975 | 1.07 | 1.01 | 0.992 | 1.01 | 0.806 | 0.638 | 0.761 | 0.53 | 0.453 | 0.483 | 0.707 | 0.717 | 0.624 | 0.526 | 0.518 | 0.537 |
| LU99A | 0.279 | 0.224 | 0.283 | 0.321 | 0.801 | 0.726 | 0.873 | 0.767 | 0.327 | 0.293 | 0.269 | 0.284 | 0.587 | 0.535 | 0.538 | 0.486 | 1 | 0.902 | 1.01 | 0.843 |
| LK-2 | 0.217 | 0.194 | 0.203 | 0.17 | 1.27 | 1.11 | 1.31 | 1.5 | 0.195 | 0.193 | 0.249 | 0.21 | 1.55 | 1.14 | 1.06 | 1.06 | 0.254 | 0.198 | 0.273 | 0.304 |
| NCI-H3122 | 0.0989 | 0.0869 | 0.0901 | 0.11 | 1.03 | 0.954 | 0.944 | 0.983 | 1.14 | 0.902 | 0.944 | 0.862 | 0.751 | 0.813 | 0.646 | 0.804 | 0.411 | 0.458 | 0.375 | 0.433 |
| NCI-H2347 | 0.321 | 0.553 | 0.497 | 0.587 | 0.771 | 0.884 | 1.13 | 1.3 | 0.396 | 0.393 | 0.419 | 0.477 | 1.05 | 1.02 | 1.05 | 1.1 |  | 0.577 | 0.657 | 0.644 |
| NCI-H1563 | 0.513 | 0.571 | 0.535 | 0.511 | 0.937 | 0.888 | 0.897 | 0.959 | 0.794 | 0.729 | 0.776 | 0.7 | 0.934 | 0.964 | 0.899 | 0.914 |  |  |  |  |
| HCC-827 | 0.804 | 0.587 | 0.91 | 0.671 | 1.12 | 0.962 | 1.01 | 0.943 | 0.954 | 0.769 | 0.798 | 0.707 | 0.724 | 0.927 | 0.981 | 0.952 | 0.297 | 0.191 | 0.306 | 0.312 |
| NCI-H1666 | 1.13 | 1.02 | 0.999 | 0.912 | 1.07 | 0.895 | 0.942 | 1 | 0.974 | 0.908 | 0.903 | 0.866 | 1.04 | 0.919 | 1.05 | 1.06 | 0.77 | 0.557 | 0.701 | 0.792 |
| NCI-H358 | 0.387 | 0.279 | 0.308 | 0.304 | 0.758 | 0.722 | 0.72 | 0.649 | 0.826 | 0.716 | 0.79 | 0.712 | 1.05 | 0.803 | 0.973 | 0.788 | 0.241 | 0.211 | 0.237 | 0.21 |
| 201T | 1.05 | 1.05 | 1.04 | 1.03 | 1.15 | 1.09 | 1.15 | 1.11 | 0.754 | 0.685 | 0.744 | 0.701 | 0.991 | 1.05 | 1.04 | 0.997 | 0.83 | 0.84 | 0.841 | 0.845 |
| PC-3 [JPC-3] | 0.793 | 0.721 | 0.811 | 0.615 | 1.08 | 0.975 | 1.09 | 0.913 | 0.732 | 0.724 | 0.782 | 0.749 | 1.09 | 0.961 | 1.05 | 1.01 | 1.02 | 0.825 | 0.874 | 0.822 |
| NCI-H2405 | 0.598 | 0.764 | 0.796 | 0.734 | 1.08 | 1.06 | 1.13 | 1 | 0.608 | 0.608 | 0.651 | 0.615 | 0.673 | 0.794 | 0.83 | 0.816 | 0.792 | 0.694 | 0.738 | 0.767 |
| LXF-289 | 0.917 | 0.57 | 0.693 | 0.618 | 1.05 | 0.957 | 0.997 | 0.947 | 0.819 | 0.776 | 0.927 | 0.734 | 0.977 | 1.05 | 1.06 | 0.951 | 0.438 | 0.364 | 0.353 | 0.388 |
| EKVX | 0.795 | 0.71 | 0.944 | 0.863 | 0.677 | 0.752 | 0.925 | 0.755 | 0.752 | 0.536 | 0.669 | 0.704 | 0.679 | 0.84 | 0.875 | 0.886 | 0.354 | 0.412 | 0.396 | 0.363 |
